What all share (assay): NCI tumour cell line growth inhibition, 48 h
Assay [1] deals with RPMI-8226 leukemia.
Assay [2] has as its system MCF7 breast.
The subject of assay [3] is UACC-62 melanoma.
In assay [4] the test system is EKVX NSCLC.
Assay [5] relates to SK-MEL-5 melanoma.
The subject of assay [6] is OVCAR-5 ovarian.
For assay [7], the system named is MDA-MB-231 breast.
Assay [8] relates to NCI/ADR-RES ovarian.
The subject of assay [9] is HCC-2998 colon.

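Each compound was tested at five concentrations against cells in 96-well plates for 48 hours. TGI: concentration producing complete growth inhibition.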

On to `C#CCOC(=O)C(N)CCSC` (configuration not stated), for which the TGI in assay [1], in assay [2], in assay [3], in assay [4], in assay [5] and in assay [6] was above 100 µM throughout. Moreover, the TGI in [7] and in assay [8] was above 100 µM in each case.

As for `CC1(C)C2CCC(N)(C2)C1O` (configuration not stated), the TGI in [1], in assay [2], in assay [3], in [4], in assay [9] and in assay [5] was above 100 µM in each case. Also, the TGI in [6] and in assay [8] was above 100 µM throughout.

Consider `CC1(C)c2ccccc2C(O)C12CCC(=O)CC2` (configuration not stated), for which the TGI in [1], in [3], in assay [4], in [9], in assay [5] and in assay [6] was above 100 µM each time. Also, the TGI in assay [7] and in assay [8] was above 100 µM in each case.

Take `O=C1N[C@@H](COc2ccc(C=Nc3ccc(CCc4ccc(N=Cc5ccc(OC[C@@H]6COC(=O)N6)cc5)cc4)cc3)cc2)CO1`: the TGI in [1], in [3], in assay [4], in assay [5], in [6] and in assay [7] was above 100 µM throughout. Besides, the TGI in assay [8] was above 100 µM.

`CCCCNC(=S)Nc1nc(C(=O)NNC(=O)c2ccccc2)cs1`: the TGI is above 100 µM in assay [1]; 41.4 µM in assay [3]; above 100 µM in assay [4]; 27.5 µM in [9]; 22.7 µM in assay [5]; 35 µM in assay [6]. For the same compound, the results for the TGI in assay [7] and in [8] were 29 µM and 64.2 µM, respectively.

Turning to `COc1cc2c(c(OC)c1OC)-c1ccc(SC)cc1C(=O)CC2`, the TGI in [1] was above 47.7 µM; in assay [2] it was above 100 µM; in assay [3] it was above 100 µM; in assay [4], above 100 µM; in assay [9], 39.6 µM; in assay [5] it was above 100 µM. This compound also displayed a TGI in [6] above 100 µM.

`C=CCC(SC)C1=C(C)C(=O)c2ccccc21` (configuration not stated): the TGI in assay [1], in [2], in assay [3], in [4], in assay [9] and in [5] was above 10 µM each time. For the same compound, the TGI in assay [6] and in assay [7] was above 10 µM each time.

`Cc1cc(C)c(N=Nc2c(O)c(S(=O)(=O)O)cc3cc(S(=O)(=O)O)ccc23)cc1C`: the TGI in assay [1], in assay [3], in assay [4], in assay [5], in assay [6] and in assay [7] was above 100 µM throughout. In [8], this compound gave a TGI above 100 µM.

`OC1c2ccccc2C(O)C2OC12` (configuration not stated): the TGI in [1], in assay [2], in [3], in assay [5], in assay [6] and in assay [7] was above 100 µM in each case. Moreover, the TGI in assay [8] is above 100 µM.

On to `CC1(C)CC[C@]2(C(=O)O)[C@H](O)C[C@]3(C)C(=CC[C@@H]4[C@@]5(C)CC[C@H](OC6OC(C(=O)O)C(O)C(O)C6O)C(C)(C)[C@@H]5CC[C@]43C)[C@@H]2C1` (some centres not stated), for which the TGI was above 100 µM in assay [1]; above 100 µM in [2]; 61.9 µM in assay [3]; above 100 µM in [4]; above 100 µM in assay [9]; above 100 µM in assay [5]. Further, the TGI in assay [6] and in assay [8] was above 100 µM throughout.

Take `COc1cc2c(cc1OCCCCCOc1cc3c(cc1OC)C(=O)N1CCC[C@H]1CN3)N=C[C@@H]1CCCN1C2=O`: the TGI in assay [2] was above 100 µM; in assay [3], 6.72 µM; in [4], above 100 µM; in assay [5], 12.2 µM; in assay [6] it was 69.4 µM; in [7] it was 9.48 µM. The TGI in assay [8] was above 100 µM.

Turning to `CN1B(c2ccccc2)N(C)C(=O)N(C)C1=O`, the TGI in [1], in assay [2], in assay [3], in assay [4], in assay [5] and in assay [6] was above 100 µM in each case. In assay [8], the TGI is above 100 µM.

For `O=S(=O)(/N=C(\NO)Nc1ccc(Cl)cc1)c1ccc(-c2ccccn2)s1`, the TGI in [3] is above 100 µM; in [4] it was 98.8 µM; in assay [5], above 100 µM; in assay [6], above 100 µM; in [7] it was above 100 µM; in [8] it was above 100 µM.

`O=C(NN=C1CCCCC1)NN=C1CCCCC1`: the TGI in assay [2], in assay [3], in assay [5], in assay [6], in assay [7] and in assay [8] was above 100 µM each time.

Values taken from PubChem BioAssay (NCI).
